Biological target: T1, Alpha-mannosidase 2 (Drosophila melanogaster, UniProt Q24451)
T1 sequence (Q24451 whole entry): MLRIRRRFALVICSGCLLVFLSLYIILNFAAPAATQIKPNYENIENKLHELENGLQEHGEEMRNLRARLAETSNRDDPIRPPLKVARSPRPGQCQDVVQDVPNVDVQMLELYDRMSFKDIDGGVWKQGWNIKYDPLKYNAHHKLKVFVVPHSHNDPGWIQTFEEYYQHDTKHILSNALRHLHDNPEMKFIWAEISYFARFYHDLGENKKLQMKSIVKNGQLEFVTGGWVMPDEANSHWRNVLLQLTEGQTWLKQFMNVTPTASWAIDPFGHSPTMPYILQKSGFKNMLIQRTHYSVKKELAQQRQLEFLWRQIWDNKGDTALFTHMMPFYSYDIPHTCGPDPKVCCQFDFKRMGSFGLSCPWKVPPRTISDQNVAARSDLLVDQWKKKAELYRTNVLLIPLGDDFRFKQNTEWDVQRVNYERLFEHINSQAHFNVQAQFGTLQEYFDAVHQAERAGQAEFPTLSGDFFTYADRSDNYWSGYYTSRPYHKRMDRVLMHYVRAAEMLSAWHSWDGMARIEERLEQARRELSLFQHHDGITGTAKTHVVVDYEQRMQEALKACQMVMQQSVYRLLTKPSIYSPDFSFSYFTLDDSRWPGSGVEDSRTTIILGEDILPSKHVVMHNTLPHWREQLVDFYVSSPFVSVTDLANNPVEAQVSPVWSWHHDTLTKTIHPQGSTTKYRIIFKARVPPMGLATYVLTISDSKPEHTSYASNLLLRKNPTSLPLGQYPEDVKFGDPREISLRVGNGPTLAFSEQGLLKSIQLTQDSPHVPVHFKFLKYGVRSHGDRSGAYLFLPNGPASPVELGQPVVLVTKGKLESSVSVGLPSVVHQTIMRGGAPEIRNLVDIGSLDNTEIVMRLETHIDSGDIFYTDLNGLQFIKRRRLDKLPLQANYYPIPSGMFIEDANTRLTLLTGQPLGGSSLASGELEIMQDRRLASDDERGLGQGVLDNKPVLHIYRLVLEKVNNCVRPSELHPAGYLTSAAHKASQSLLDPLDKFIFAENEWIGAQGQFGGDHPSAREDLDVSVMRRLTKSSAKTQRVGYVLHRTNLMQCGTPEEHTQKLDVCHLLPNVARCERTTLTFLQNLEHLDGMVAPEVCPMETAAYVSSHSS
Assay: Inhibition Assay
Experimental: The rate of hydrolysis catalyzed by drosophila golgi alpha-mannosidase II (dGMII)and in the presence of different concentration of inhibitor was measured fluorometrically and Ki values were determined from Dixon plots.

## C[S+]([O-])[C@@H]1[C@@H](N)[C@@H](O)[C@@H](O)[C@H]1O (some centres not stated) [Mannostatin B, 2]
  Ki: 0.15 µM

## N[C@H]1[C@@H](O)[C@@H](O)[C@@H](O)[C@H]1O [Mannostatin analogue, 4b]
  IC50: 100 µM

From BindingDB's records for doi:10.1002/cbic.200800538 (University of Toronto, 2009)
